From paper PMC10047490, “Novel Generation of FAP Inhibitor-Based Homodimers for Improved Application in Radiotheranostics” (Cancers, 2023)
Where two headings read alike, the source gives them in different places.

Experiments:
FAP = details: different assay conditions; cited from earlier work
[1] = biological target: T1, rhFAP (recombinant human fibroblast activation protein) (Homo sapiens, UniProt Q12884); test: In vitro inhibition assay (IC50), FAP, substrate Z-Gly-Pro-AMC; format: biochemical; details: for IC50 values for FAP (in words): summary statement on Table 3
T1 construct: made in house
T1 sequence (Q12884 1-760): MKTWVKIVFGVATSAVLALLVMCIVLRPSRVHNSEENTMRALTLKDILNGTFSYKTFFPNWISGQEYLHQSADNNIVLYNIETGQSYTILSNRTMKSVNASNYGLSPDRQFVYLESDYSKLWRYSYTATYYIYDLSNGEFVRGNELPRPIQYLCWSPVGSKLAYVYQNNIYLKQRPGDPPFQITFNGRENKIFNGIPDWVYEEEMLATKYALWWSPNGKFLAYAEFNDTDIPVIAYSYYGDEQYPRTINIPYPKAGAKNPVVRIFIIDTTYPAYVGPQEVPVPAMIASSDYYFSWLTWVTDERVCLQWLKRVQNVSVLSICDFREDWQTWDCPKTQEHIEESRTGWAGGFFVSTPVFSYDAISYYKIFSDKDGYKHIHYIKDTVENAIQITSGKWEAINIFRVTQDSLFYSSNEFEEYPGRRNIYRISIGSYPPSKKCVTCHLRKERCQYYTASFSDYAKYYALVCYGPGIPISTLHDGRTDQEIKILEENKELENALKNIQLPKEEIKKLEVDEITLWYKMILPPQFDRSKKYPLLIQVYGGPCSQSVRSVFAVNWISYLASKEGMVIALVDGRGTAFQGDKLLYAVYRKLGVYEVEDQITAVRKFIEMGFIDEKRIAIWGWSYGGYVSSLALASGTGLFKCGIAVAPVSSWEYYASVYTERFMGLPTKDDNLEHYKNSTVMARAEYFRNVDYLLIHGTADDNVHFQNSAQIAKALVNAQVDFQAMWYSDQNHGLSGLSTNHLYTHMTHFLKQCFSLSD
Description: (§1) rhFAP (recombinant human fibroblast activation protein), DPP8 (dipeptidyl peptidase VIII) and DPP9 (dipeptidyl peptidase IX) were expressed and purified as described previously. DPP4 (dipeptidyl peptidase IV) was purified from human seminal plasma as described previously. Human recombinant PREP (prolylendopeptidase) was expressed and purified as described before.
(§2) IC50 measurements for FAP and PREP were carried out as described before. […] For PREP, N-succinyl-Gly-Pro-AMC (Bachem) at a final concentration of 250 µM at pH 7.4 in 0.1 M K-phosphate, 1 mM EDTA, 1 mM DTT and 1 mg/mL BSA buffer was used.
(§3) All enzymatic activities were determined kinetically for 15 min at 37 °C by measuring initial velocities of AMC release (λex = 380 nm and λem = 465 nm) or pNA release (405 nm) from the substrates mentioned above with an Infinite 200 plate reader from Tecan Group Ltd. (Männedorf, Switzerland). The Magellan software was used to process the data, and data fitting was performed using a non-linear fitting model in Grafit 7.4. All IC50 measurements were carried out in triplicate with at least eight different inhibitor concentrations tested.

[2] = biological target: T2, Human recombinant PREP (prolylendopeptidase) (Homo sapiens, UniProt P48147); test: In vitro inhibition assay (IC50), PREP, substrate N-succinyl-Gly-Pro-AMC; format: biochemical; details: for IC50: 250 µM N-succinyl-Gly-Pro-AMC, pH 7.4, 37 °C; for SI(PREP/FAP): selectivity index = IC50(PREP)/IC50(FAP)
T2 construct: made in house
T2 sequence (P48147 1-710): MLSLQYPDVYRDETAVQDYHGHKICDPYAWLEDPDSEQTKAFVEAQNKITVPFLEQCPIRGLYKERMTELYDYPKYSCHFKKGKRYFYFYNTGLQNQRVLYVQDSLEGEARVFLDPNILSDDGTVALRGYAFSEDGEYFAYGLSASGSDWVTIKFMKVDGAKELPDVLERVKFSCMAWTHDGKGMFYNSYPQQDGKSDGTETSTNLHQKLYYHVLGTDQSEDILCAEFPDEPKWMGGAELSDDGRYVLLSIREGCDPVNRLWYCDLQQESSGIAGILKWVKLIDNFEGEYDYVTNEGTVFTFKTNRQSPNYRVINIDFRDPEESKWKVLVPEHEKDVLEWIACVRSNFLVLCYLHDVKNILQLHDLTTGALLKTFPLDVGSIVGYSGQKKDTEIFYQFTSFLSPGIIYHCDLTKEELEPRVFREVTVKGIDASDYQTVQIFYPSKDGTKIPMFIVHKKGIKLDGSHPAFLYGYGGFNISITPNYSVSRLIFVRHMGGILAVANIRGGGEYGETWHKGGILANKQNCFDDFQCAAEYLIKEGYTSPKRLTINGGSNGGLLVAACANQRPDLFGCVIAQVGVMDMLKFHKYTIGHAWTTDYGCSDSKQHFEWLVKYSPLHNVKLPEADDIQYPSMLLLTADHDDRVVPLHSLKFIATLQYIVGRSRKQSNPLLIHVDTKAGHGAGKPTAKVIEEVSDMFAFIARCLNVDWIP
Description: as §1, §2, §3

[3] = biological target: T3, DPP4 (dipeptidyl peptidase IV) purified from human seminal plasma (Homo sapiens, UniProt P27487); test: In vitro inhibition assay (IC50), DPP4, substrate Ala-Pro-pNA; format: biochemical; details: for IC50: 25 µM Ala-Pro-pNA, pH 7.4, 37 °C; for SI(DPP4/FAP): selectivity index = IC50(DPP4)/IC50(FAP)
T3 construct: DPP4 (dipeptidyl peptidase IV) was purified from human seminal plasma; from tissue; host or cells: human seminal plasma
T3 sequence (P27487 whole entry): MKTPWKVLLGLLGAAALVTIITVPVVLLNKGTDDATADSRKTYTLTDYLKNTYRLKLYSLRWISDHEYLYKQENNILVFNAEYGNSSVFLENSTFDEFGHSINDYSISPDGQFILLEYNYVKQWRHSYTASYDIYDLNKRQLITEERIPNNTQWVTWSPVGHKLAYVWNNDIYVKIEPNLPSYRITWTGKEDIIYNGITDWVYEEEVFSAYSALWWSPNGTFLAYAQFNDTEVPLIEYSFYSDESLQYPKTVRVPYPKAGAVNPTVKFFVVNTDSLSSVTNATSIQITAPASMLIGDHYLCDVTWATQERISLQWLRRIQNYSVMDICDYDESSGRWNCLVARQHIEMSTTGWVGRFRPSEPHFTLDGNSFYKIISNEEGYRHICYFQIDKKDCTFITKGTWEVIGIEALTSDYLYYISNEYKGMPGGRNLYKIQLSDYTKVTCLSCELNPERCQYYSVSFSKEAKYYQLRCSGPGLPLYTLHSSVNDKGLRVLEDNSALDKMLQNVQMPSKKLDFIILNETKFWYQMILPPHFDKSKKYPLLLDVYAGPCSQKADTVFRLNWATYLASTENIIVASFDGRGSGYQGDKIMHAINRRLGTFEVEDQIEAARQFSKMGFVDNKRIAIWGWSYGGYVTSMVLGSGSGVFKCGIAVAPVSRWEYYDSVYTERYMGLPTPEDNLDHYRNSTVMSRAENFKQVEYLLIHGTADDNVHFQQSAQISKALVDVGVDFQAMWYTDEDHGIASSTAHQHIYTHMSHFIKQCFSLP
Description: as §1, §3

[4] = biological target: T4, DPP8 (dipeptidyl peptidase VIII) (Homo sapiens, UniProt Q6V1X1); test: In vitro inhibition assay (IC50), DPP8, substrate Ala-Pro-pNA; format: biochemical; details: for IC50: 300 µM Ala-Pro-pNA, pH 7.4, 37 °C
T4 construct: made in house
T4 sequence (Q6V1X1 whole entry, species assumed): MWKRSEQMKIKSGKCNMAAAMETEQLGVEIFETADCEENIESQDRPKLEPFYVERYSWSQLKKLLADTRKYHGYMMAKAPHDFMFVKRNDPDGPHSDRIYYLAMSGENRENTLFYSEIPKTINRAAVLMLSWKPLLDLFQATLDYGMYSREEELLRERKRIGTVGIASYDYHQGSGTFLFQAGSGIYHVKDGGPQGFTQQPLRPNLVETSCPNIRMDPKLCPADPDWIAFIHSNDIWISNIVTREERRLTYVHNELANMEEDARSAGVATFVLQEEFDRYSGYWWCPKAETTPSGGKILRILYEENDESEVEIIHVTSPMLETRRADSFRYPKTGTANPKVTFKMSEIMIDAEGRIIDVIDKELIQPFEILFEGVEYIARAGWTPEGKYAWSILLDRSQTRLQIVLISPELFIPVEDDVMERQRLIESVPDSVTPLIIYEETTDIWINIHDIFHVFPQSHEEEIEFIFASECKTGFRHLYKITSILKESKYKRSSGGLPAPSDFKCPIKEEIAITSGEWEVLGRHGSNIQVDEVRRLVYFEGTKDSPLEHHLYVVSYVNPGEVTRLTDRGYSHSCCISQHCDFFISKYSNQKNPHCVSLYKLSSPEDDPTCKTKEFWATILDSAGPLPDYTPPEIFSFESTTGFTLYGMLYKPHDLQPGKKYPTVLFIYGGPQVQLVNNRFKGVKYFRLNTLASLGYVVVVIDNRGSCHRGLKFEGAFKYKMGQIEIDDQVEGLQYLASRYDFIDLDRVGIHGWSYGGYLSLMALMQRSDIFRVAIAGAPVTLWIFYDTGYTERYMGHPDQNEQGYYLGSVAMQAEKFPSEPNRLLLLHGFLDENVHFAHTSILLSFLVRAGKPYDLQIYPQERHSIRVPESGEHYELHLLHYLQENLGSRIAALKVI
Description: as §1, §3

[5] = biological target: T5, DPP9 (dipeptidyl peptidase IX) (Homo sapiens, UniProt Q86TI2); test: In vitro inhibition assay (IC50), DPP9, substrate Ala-Pro-pNA; format: biochemical; details: for IC50: 150 µM Ala-Pro-pNA, pH 7.4, 37 °C; for SI(DPP9/FAP): selectivity index = IC50(DPP9)/IC50(FAP)
T5 construct: made in house
T5 sequence (Q86TI2 whole entry, species assumed): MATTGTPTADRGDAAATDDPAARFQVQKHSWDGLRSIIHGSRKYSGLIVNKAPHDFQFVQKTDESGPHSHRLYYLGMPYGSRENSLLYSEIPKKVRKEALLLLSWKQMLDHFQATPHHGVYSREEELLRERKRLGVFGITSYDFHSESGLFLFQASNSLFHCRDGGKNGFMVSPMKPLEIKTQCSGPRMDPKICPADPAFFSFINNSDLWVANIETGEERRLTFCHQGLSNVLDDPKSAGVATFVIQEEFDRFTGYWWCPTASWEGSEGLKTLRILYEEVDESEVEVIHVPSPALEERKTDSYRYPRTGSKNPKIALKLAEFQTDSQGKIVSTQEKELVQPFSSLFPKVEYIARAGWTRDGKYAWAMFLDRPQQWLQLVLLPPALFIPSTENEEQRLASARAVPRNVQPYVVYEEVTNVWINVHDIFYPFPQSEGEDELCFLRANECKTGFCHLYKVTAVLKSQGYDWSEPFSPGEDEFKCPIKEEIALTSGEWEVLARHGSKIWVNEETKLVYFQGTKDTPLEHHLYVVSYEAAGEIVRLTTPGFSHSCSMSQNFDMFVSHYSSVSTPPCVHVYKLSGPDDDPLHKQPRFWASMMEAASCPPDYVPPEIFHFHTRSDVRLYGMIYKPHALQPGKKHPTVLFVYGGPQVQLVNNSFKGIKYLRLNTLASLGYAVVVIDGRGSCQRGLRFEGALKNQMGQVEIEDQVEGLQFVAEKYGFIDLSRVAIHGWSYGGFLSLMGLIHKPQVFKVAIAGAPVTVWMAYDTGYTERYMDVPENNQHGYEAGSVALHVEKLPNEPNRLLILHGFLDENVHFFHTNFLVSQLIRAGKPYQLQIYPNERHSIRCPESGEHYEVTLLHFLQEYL
Description: as §1, §3

[6] = biological target: T4, DPP8 (dipeptidyl peptidase VIII); details: from previous works; cited from earlier work

Compound: N#C[C@@H]1CC(F)(F)CN1C(=O)CNC(=O)c1ccnc2c(NC(=O)CCC(=O)NCCCC[C@H](NC(=O)CCC(=O)Nc3cccc4c(C(=O)NCC(=O)N5CC(F)(F)C[C@H]5C#N)ccnc34)C(=O)NCCNC(=O)CC[C@H](C(=O)O)N3CCN(CC(=O)O)CCN(CC(=O)O)CCN(CC(=O)O)CC3)cccc12 [BiOncoFAP-DOTAGA]
- IC50 (FAP): 0.17 nM

Compound: N#C[C@@H]1CC(F)(F)CN1C(=O)CNC(=O)c1ccnc2ccc(OCCCCNC(=O)CC[C@H](NC(=O)CN3CCN(CC(=O)O)CCN(CC(=O)O)CCN(CC(=O)O)CC3)C(=O)NCCCCOc3ccc4nccc(C(=O)NCC(=O)N5CC(F)(F)C[C@H]5C#N)c4c3)cc12 [DO3A.Glu.(FAPi)2, 2,2′,2″-(10-(2-(((S)-1,5-bis((4-((4-((2-((S)-2-Cyano-4,4-difluoropyrrolidin-1-yl)-2-oxoethyl)-carbamoyl)quinolin-6-yl)oxy)butyl)amino)-1,5-dioxopentan-2-yl)amino)-2-oxoethyl)-1,4,7,10-tetraazacyclododecane-1,4,7-triyl)triacetic acid]
- IC50 values for FAP (in words) [1]: subnanomolar
- IC50 [2]: 1000 ± 140 nM
- SI(PREP/FAP) [2]: 1667
- IC50 [3]: 540 ± 60 nM
- SI(DPP4/FAP) [3]: 900
- IC50 [4]: 1030 ± 180 nM
- SI(DPP8/FAP) ([4]; selectivity index = IC50(DPP8)/IC50(FAP)): 1717
- IC50 [5]: 950 ± 110 nM
- SI(DPP9/FAP) [5]: 1583

Compound: N#C[C@@H]1CC(F)(F)CN1C(=O)CNC(=O)c1ccnc2ccc(OCCCCNC(=O)CC[C@H](NC(=O)CCC(C(=O)O)N3CCN(CC(=O)O)CCN(CC(=O)O)CCN(CC(=O)O)CC3)C(=O)NCCCCOc3ccc4nccc(C(=O)NCC(=O)N5CC(F)(F)C[C@H]5C#N)c4c3)cc12 (stereo partly drawn) [DOTAGA.Glu.(FAPi)2, 2,2′,2″-(10-(4-(((S)-1,5-bis((4-((4-((2-((S)-2-Cyano-4,4-difluoropyrrolidin-1-yl)-2-oxoethyl)-carbamoyl)quinolin-6-yl)oxy)butyl)amino)-1,5-dioxopentan-2-yl)amino)-1-carboxy-4-oxobutyl)-1,4,7,10-tetraazacyclododecane-1,4,7-triyl)triacetic acid]
- IC50 ([1]; 50 µM Z-Gly-Pro-AMC, pH 8.0, 37 °C, triplicate): 0.26 ± 0.04 nM
- IC50 values for FAP (in words) [1]: subnanomolar
- IC50 [2]: 590 ± 100 nM
- SI(PREP/FAP) [2]: 2269
- IC50 [3]: 1190 ± 80 nM
- SI(DPP4/FAP) [3]: 4577
- IC50 [4]: 29 ± 4 nM
- IC50 [5]: 83 ± 1.5 nM
- SI(DPP9/FAP) [5]: 319

Compound: N#C[C@@H]1CC(F)(F)CN1C(=O)CNC(=O)c1ccnc2ccccc12 [UAMC-1110]
- IC50 [6]: > 10000 nM
